Laboratory results: ChEMBL document CHEMBL1201862, “PubChem BioAssay data set” (2004)
One block for each compound: values may come before it. Active and inactive are the calls of the source.

How the values were obtained:
[1] = target: DNA dC->dU-editing enzyme APOBEC-3A (Homo sapiens, UniProt P31941); test: Dose Response confirmation of small molecule APOBEC3A DNA Deaminase Inhibitors via a fluorescence-based single-stranded DNA deaminase assay. [Related pubchem assays (depositor defined):AID493011, AID493024]; format: functional
[2] = target: DNA dC->dU-editing enzyme APOBEC-3G (Homo sapiens, UniProt Q9HC16); format: functional;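 also: Dose-response counterscreen measuring inhibition of APOBEC3G DNA deaminase activity, run while confirming APOBEC3A inhibitors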
Troponin, cardiac muscle = Troponin, cardiac muscle (Homo sapiens, UniProt P19429+P45379+P63316); test: Fluorescence-based biochemical high throughput dose response assay for activators of the calcium sensitivity of cardiac Regulated Thin Filaments (RTF). [Related pubchem assays (depositor defined):AID493008, AID493018, AID504382, AID504383]; format: protein-complex assay
SUMO-activating enzyme [3] = target: T1, SUMO-activating enzyme (Homo sapiens, UniProt Q9UBT2); test: inhibitors of in vitro SUMOylation cascade, primary screen, biochemical, HTRF, uHTS (AID 2006); format: protein-complex assay
[4] = target: T2, Tyrosine-protein phosphatase non-receptor type 5 (Homo sapiens, UniProt P54829); test: STEP phosphatase inhibitors, confirmation, biochemical, fluorescence intensity, uHTS hits (AID 602372); format: functional; details: read-out: IC50_Mean
T2 sequence (P54829 whole entry): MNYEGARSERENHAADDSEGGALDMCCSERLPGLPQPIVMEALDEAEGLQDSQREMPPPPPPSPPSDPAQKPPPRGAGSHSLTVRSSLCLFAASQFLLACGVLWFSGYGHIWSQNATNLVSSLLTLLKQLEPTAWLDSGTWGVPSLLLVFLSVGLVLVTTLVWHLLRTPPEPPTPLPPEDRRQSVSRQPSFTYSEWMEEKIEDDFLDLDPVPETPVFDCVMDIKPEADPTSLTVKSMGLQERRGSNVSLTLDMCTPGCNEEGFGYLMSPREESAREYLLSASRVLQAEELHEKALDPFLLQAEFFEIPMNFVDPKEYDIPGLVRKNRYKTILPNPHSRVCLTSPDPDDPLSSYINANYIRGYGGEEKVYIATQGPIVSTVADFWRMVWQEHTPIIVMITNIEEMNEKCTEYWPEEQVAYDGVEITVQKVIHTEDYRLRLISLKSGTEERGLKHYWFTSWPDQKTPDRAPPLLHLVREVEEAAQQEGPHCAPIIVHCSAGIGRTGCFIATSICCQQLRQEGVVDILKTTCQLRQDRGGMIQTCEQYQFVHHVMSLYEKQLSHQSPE

[5] = target: T3, Low molecular weight phosphotyrosine protein phosphatase (Homo sapiens, UniProt P24666); format: functional; details: read-out: IC50_Mean;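 also: Dose-response confirmation assay measuring inhibition of LMPTP enzyme activity by fluorescence intensity read-out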
T3 sequence (P24666 whole entry): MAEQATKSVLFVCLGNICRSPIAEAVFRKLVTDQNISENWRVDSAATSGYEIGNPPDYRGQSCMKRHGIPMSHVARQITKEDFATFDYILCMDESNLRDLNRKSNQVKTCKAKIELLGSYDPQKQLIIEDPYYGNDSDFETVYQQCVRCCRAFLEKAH

SUMO-activating enzyme [6] = target: T1, SUMO-activating enzyme; test: SUMOylation inhibitor hit validation, confirmation, SUMOylation inhibitor project, biochemical, AlphaScreen (AID 2018); format: functional
[7] = target: T4, Tyrosine-protein phosphatase non-receptor type 11 (Homo sapiens, UniProt Q06124); test: SHP2 phosphatase inhibition, dose response, selectivity assay for STEP inhibitor project, biochemical (AID 602367); format: functional; details: read-out: IC50_Mean
T4 sequence (Q06124 whole entry): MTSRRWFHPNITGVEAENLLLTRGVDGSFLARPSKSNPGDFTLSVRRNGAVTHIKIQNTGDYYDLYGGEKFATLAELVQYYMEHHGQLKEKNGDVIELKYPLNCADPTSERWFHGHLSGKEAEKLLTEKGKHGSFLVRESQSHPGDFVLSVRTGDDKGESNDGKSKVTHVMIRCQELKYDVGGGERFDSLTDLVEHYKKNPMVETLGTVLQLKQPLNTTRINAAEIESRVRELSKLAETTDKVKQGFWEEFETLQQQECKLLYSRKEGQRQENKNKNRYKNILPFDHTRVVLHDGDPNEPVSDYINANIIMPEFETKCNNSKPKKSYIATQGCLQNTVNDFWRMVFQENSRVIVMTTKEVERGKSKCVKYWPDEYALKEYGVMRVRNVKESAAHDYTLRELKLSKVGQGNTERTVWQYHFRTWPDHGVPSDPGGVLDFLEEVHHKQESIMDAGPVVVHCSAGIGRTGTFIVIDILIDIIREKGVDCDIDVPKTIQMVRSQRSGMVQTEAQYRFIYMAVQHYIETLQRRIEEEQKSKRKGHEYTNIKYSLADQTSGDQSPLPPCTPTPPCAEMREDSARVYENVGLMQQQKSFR

[8] = target: Dual specificity protein phosphatase 3 (Homo sapiens, UniProt P51452); test: VHR phosphatase inhibition, dose response, selectivity assay for STEP inhibitor project, biochemical (AID 602374); format: functional; details: read-out: IC50_Mean
[9] = target: T5, Carboxy-terminal domain RNA polymerase II polypeptide A small phosphatase 1 (Homo sapiens, UniProt Q9GZU7); test: inhibitors of CTDSP1, concentration-response testing, biochemical assay, absorbance-based, actives from ultra-high-throughput screening (AID 540297); format: functional
T5 sequence (Q9GZU7 whole entry): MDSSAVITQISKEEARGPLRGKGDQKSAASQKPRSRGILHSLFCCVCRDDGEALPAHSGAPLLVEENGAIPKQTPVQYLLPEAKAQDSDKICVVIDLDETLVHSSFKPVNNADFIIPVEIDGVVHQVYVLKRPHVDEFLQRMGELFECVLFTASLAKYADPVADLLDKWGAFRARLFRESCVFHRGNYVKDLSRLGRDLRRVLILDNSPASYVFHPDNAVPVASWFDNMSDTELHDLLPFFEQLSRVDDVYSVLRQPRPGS

[10] = target: T6, Alkaline phosphatase, tissue-nonspecific isozyme (Homo sapiens, UniProt P05186); test: human TNAP enzyme inhibitors, SAR follow-up, biochemical, luminescent, dose response (AID 1056)
T6 sequence (P05186 whole entry): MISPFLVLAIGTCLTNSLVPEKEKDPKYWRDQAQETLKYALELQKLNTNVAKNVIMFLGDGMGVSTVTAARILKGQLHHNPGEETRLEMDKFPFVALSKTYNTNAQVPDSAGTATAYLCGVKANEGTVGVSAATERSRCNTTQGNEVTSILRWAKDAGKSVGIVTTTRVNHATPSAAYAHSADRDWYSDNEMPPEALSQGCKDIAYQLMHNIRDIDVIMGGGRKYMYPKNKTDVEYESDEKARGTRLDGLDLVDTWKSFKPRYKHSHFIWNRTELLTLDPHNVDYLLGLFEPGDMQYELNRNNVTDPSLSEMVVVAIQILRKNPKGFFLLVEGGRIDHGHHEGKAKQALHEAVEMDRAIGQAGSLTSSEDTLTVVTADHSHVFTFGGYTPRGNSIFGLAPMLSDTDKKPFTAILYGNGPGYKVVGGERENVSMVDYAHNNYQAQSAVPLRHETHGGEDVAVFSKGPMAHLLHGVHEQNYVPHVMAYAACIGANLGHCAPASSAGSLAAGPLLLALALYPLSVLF

[11] = target: Alkaline phosphatase, placental type (Homo sapiens, UniProt P05187); test: PLAP enzyme inhibitors, confirmation, biochemical, luminescence (AID 1512); format: functional

SMILES: CC(C)(C)OC(=O)N1CC(O)CC1C(=O)OCC(=O)c1ccc(-c2ccccc2)cc1 (configuration not stated)
IC50 [1]: 1.79 µM (active)
IC50 [2]: 2.89 µM (active)

EC50 (Troponin, cardiac muscle): > 71.5 µM (inactive)
SMILES: O=C1c2ccccc2C(Nc2cccnc2)N1Cc1ccccc1Cl (configuration not stated)

IC50 (SUMO-activating enzyme [3]): 23.9 µM (active)
IC50 [4]: 14.1 µM (active)
IC50 [5]: 32.9 µM (inactive)
IC50 (SUMO-activating enzyme [6]): 4.87 µM (active)
IC50 [7]: 2.2 µM (active)
IC50 [8]: 2.29 µM (active)
IC50 [9]: 5.84 µM (active)
SMILES: N=C1S/C(=C\c2ccc(O)cc2)C(=O)N1c1ccc(F)cc1

IC50 [10]: > 100 µM (inactive)
IC50 [11]: > 100 µM (inactive)
SMILES: CC(C)(C)C1(C)Oc2cccc(O)c2O1 (configuration not stated)
